Legend:
[1] = Second-order rate constants by stopped-flow spectrophotometry, unsubstituted TCO in 1,4-dioxane at 25° C.; assay type: physicochemical; conditions: value of the Tz-scaffold: representative tetrazine with unsubstituted TCO, n ≥ 4
Procedure: Reaction kinetics of the Tz-derivatives were determined by pseudo-first order measurements in dioxane at 25.0±0.1° C. or PBS at 27.0±0.1° ° C. in a SX20 stopped flow photometer (Applied Photophysics). The pseudo first order rate constant was determined by linearization of the decay curve followed by linear fitting. The second order rate constant was calculated from the pseudo-first order rate constant.
A structurally diverse library of 45 Tz-derivatives was prepared (FIG. 15), covering a wide spectrum of physicochemical properties, in particular calculated TPSAs between 60-350 Å2 and different lipophilicities, with calculated log D7.4 values (c log D7.4) ranging from approximately −7.0 to 2.5 (Table 5). […] The distribution coefficient at physiological pH (log D7.4) and TPSA were calculated using the software Chemicalize. Tetrazines conjugated to DOTA were calculated with chelated trivalent cations, Tzs with other chelators with bivalent cations. Second-order rate constants for the Tz scaffolds A-L were determined by stopped-flow spectrophotometry (n≥4), monitoring the reaction of representative tetrazines with unsubstituted trans-cyclooctene (TCO) at 25° C. in 1,4-dioxane, and with TCO-PEG4 (modified TCO-5ax-OH, ‘minor-TCO’) in Dulbecco's phosphate buffered saline (DBPS) at 37° C. n≥3.

[2] = test system: CC49-TCO pretargeted LS174T colon carcinoma xenografts; assay: Pretargeted blocking assay with [111In]Q (Example 140); assay type: in vivo, BALB/c mice; conditions: for Blocking effect: unlabeled Tz i.v. 72 h after CC49-TCO and 1 h before [111In]Q, change in tumor uptake 22 h p.i., normalized to unblocked group
Procedure: All animal studies were approved by the Danish Animal Welfare Council, ministry of Justice. Five weeks old female nude BALB/c mice (Charles River, Sulzfeld, Germany) were allowed to acclimatize for one week with access to water and chow ad libitum. Human colon cancer cell line (LS174T; obtained from ATCC) was cultured in minimum essential medium (MEM) supplemented with 10% fetal bovine serum, 1% L-Glutamine, 1% Sodium pyruvate, 1% non-essential amino acids, and 1% penicillin-streptomycin at 37° C. and 5% CO2. Cells were harvested by trypsination at a confluence of 70-90% and subcutaneous tumors were established in the left flank of the 6 weeks old animals by inoculation of ˜5×10^6 LS174T cells resuspended in sterile PBS (100 μL) and allowed to grow for 7-10 days. Tumors were measured using a caliper and the volume calculated using the formula volume=½(length×width^2).
The assay was inspired by receptor blocking experiments and based on the pretargeted imaging approach reported by Rossin et al. An ^111In-labeled Tz [^111In]Q was used in pair with TCO-modified CC49, a non-internalizing mAb that targets the tumor-associated glycoprotein 72 (TAG72), as a benchmark model for the in vivo ligation.
The TCO-modification of CC49 was carried out according to Rossin et al. To study the in vivo ligation performance of Tz-derivatives 1a-45a, BALB/c mice bearing LS174T colon carcinoma xenografts were injected intravenously (i.v.) with CC49-TCO 72 h prior to i.v. injection of the unlabeled Tz, followed by administration of [^111In]Q 1 h later. The animals were euthanized after 22 h and an ex vivo biodistribution was carried out to quantify the tumor uptake of [111 In]Q (FIG. 15). The efficiency of the in vivo ligation of the unlabeled Tz can thus be correlated to a reduced uptake of [111 In]Q (FIG. 15). As a control, blocking was performed using the non-radioactive precursor of [^111In]Q, which blocked ≥99% of the [^111In]Q tumor uptake. A group of CC49-TCO pretreated mice were injected exclusively with [^111In]Q (without blocking) and the determined uptake was used as reference value (100%) to normalize the observed changes in tumor uptake in blocking experiments.
All of these probes include H-phenyl-, pyrimidyl-phenyl-, or bis(pyridyl)-Tz-scaffolds with second-order rate constants for the reaction with TCO of >70 M 1 s 1 (1,4-dioxane, 25° C.) or of >39,000 M 1 s 1 (DPBS, 37° C.) (cf. Table 5). Next, potential correlations between the blocking effect, the c log D7.4 and the TPSA, as well as IEDDA reactivity were investigated. […] However, a distinct relationship between c log D7.4 values and the blocking effect was evidently observed when comparing Tz-derivatives with similar IEDDA reactivity (FIG. 16C, 16D). For all Tz-scaffolds a Pearson's correlation coefficient >0.78 was found. […] The blocking effect of non-radiolabeled Tz was determined as the change in tumor uptake of [111 In]Q 22 h p.i. Each Tz was administered 1 h prior to [111 In]Q and the uptake normalized to a group of animals were no blocking was performed (control). Data represent mean from n=3 mice/group. Correlation of blocking effect and c log D7.4 for Tz-derivatives with similar IEDDA reactivity (as shown in FIGS. 16C and D) where data was fitted to exponential growth equation Y=Y0 ekx (dotted line). The statistical analysis of the correlation between tumor uptake and c log D7.4 for the different groups of Tz-derivatives (shown in Table 7) was obtained by Pearson's correlation coefficient (r) which describes the goodness of fit between the blocking effect and c log D7.4. Notes: a Reaction of representative Tz with unsubstituted TCO; “Reaction of representative Tz with TCO-PEG4;” Measured for Tz-scaffold A only; n.d.=not determined.

[3] = Second-order rate constants by stopped-flow spectrophotometry, TCO-PEG4 in DPBS at 37° C.; assay type: physicochemical; conditions: value of the Tz-scaffold: representative tetrazine with TCO-PEG4, n ≥ 4
Procedure: A structurally diverse library of 45 Tz-derivatives was prepared (FIG. 15), covering a wide spectrum of physicochemical properties, in particular calculated TPSAs between 60-350 Å2 and different lipophilicities, with calculated log D7.4 values (c log D7.4) ranging from approximately −7.0 to 2.5 (Table 5). The Tz-scaffolds (A-L) include mono- and disubstituted methyl-, phenyl-, 2-pyrimidyl-, and 2-pyridyl-substituted Tz-derivatives with second-order rate constants for the reaction with TCO ranging from 1.4 to 230 M^−1 s^−1 in 1,4-dioxane at 25° C., and from 1,100 to 73,000 M^−1 s^−1 in buffered aqueous solution at 37° C. […] Several compounds were obtained as copper(II) complexes (for details see the Supporting Information), which was taken into account in the calculation of c log D7.4 and TPSA. The distribution coefficient at physiological pH (log D7.4) and TPSA were calculated using the software Chemicalize. Tetrazines conjugated to DOTA were calculated with chelated trivalent cations, Tzs with other chelators with bivalent cations. Second-order rate constants for the Tz scaffolds A-L were determined by stopped-flow spectrophotometry (n≥4), monitoring the reaction of representative tetrazines with unsubstituted trans-cyclooctene (TCO) at 25° C. in 1,4-dioxane, and with TCO-PEG4 (modified TCO-5ax-OH, ‘minor-TCO’) in Dulbecco's phosphate buffered saline (DBPS) at 37° C. n≥3.

[4] = Stability in phosphate-buffered saline (PBS) by analytical HPLC; assay type: physicochemical; conditions: 12 h at 37° C.; for Stability in PBS (degradation): analytical HPLC
Procedure: The in vitro stability of UB108 and UB137 was assessed by analytical HPLC in Phosphate-buffered saline (PBS), Example 13 for UB108. […] Consequently, the organotin precursors were synthesized with an unoptimized synthetic strategy (FIG. 6, Examples 101 and 110). Radiolabeling succeeded in a one-pot, two step sequence with a RCY (d.c.) of approx. 10% and an overall synthesis time of ca. 90 minutes including synthesis, separation and formulation steps. An activity yield of 636 MBq starting from 11 GBq fluoride-18, and RCP of 98% at EOS was observed (FIGS. 6 and 11). UB137 could be labeled with similar results (FIGS. 6 and 7). The tetrazine ligation of ^18F-UB108 with s-TCO occurred rapidly, forming ligation products after click reaction (FIG. 11). Stability evaluation was completed for the formulated compound ^18F-UB108 in PBS at room temperature. […] UB137 could be labeled with similar results.
The shelf stability of UB-108 was assessed in phosphate-buffered saline (PBS) by analytical-HPLC. […] Consequently, the stannane precursor was synthesized in 4 steps (example 98-101 Radiolabeling succeeded in a one-pot, two-step sequence with a RCY (d.c.) of 11±3% (n=4) and an overall synthesis time of ca. 90 minutes including synthesis, separation and formulation. [^18F]-UB108 was obtained with an Am of 134±22 GBq/μmol (d.c.), a RCP of ≥99% (n=4) and an activity yield of 600-700 MBq (EOS) starting from ˜12 GBq fluoride-18. [^18F]-UB108 was stable in PBS at room temperature for minimum 4 h and rapidly reacted with TCO-PNP carbonate (23) as confirmed by radio-HPLC. Residual amounts of Cu and Sn in the final formulated solution were analyzed by ICP-MS and found to be well below the allowed limits specified in the ICH Guidelines (41-60 and 2.3-3.0 μg/L vs. 300 and 600 μg/day, respectively).

[5] = test system: CC49-TCO pretargeted LS174T tumor xenografts; assay: Blocking experiments with [111In]Q (Example 126, FIG. 3); assay type: in vivo, nude BALB/c mice; conditions: FIG. 3, cold 19F-Tz 2 h before [111In]Q
Procedure: In this respect, we designed two highly reactive Tzs, which allowed ^18F-labeling and respective introduction of polar groups (FIG. 4-8). UB137 and UB108 were synthesized in sufficient yields via a Pinner-like synthesis as described in Example 97 and 106 and their ability to be used in pretargeted imaging were evaluated. The results were compared with the performance of compounds UB-65 and RGV-52 (FIG. 3). Efficiency in vivo was tested in an ex vivo screening assay lately published by our group and is inspired by traditional receptor blocking studies. In short, tumour-bearing mice are injected with a validated TCO-modified pretargeting vector 72 h before a test ^19F-Tz is administered. Subsequently after 2 hours, a pretargeted established ^111In-DOTA-Tz (Q)[6] is administered to the same mouse. […] In this manner, the blocking ability of the cold ^19F-Tz can be evaluated. […]
All animal studies were approved by the Danish Animal Welfare Council, ministry of Justice. […] Tumors were measured using a caliper and the volume calculated using the formula volume=½(length×width^2).
These blocking experiments were made using the method described in Example 125. […] All tissues were weighted and the radioactivity measured in a gamma counter (Wizard2, Perkin Elmer) and data was corrected for decay, tissue weight and injected amount of radioactivity. […]

Shelf stability in PBS, intact ([4]; 2 nmol/mL) [%] | Stability in PBS (degradation) [4] | SMILES | Rate constant (1,4-dioxane, 25° C.) [1] [M⁻¹ s⁻¹] | % Tumor Uptake of [^111In]46 after blocking ([2]; tumor uptake 22 h p.i. normalized to unblocked group (100%)) [%] | Blocking effect [2] [%] | Blocking effect ([2]; listed as non-radioactive precursor of [^111In]Q) [%] | Rate constant (DPBS, 37° C.) [3] | Blocking effect (ranking) [5]
 |  | O=C(O)CN1CCN(CC(=O)O)CCN(CC(=O)NCCOCCOCCOCCOCCOCCOCCOCCOCCOCCOCCOCCNC(=O)CCCC(=O)Nc2ccc(-c3nnc(-c4ccccn4)nn3)nc2)CCN(CC(=O)O)CC1 [Q, reference compound] | 230 | 1 | 99 | ≥ 99 | 73,000 M^−1 s^−1 | 
98 | did not show degradation | O=C(O)CN(CC(=O)O)Cc1cc(F)cc(-c2nncnn2)c1 [UB-108, 1-Carboxy-N-(carboxymethyl)-N-(3-fluoro-5-(1,2,4,5-tetrazin-3-yl)benzyl)methanaminium 2,2,2-trifluoroacetate] |  |  |  |  |  | best blocking effect
 | did not show degradation | O=C(O)CNCc1cc(F)cc(-c2nncnn2)c1 [UB-137, 1-Carboxy-N-(3-fluoro-5-(1,2,4,5-tetrazin-3-yl)benzyl)methanaminium 2,2,2-trifluoroacetate] |  |  |  |  |  | best blocking effect

Source: US20240287104A1, “NUCLIDE LABELLED H-TETRAZINES AND USE THEREOF FOR PET AND SPECT PRETARGETED IMAGING AND RADIONUCLIDE THERAPY” (RIGSHOSPITALET, priority 2020, published 2024)
